# Measured values published in patent publication US6528251B2, “Method of managing the chemotherapy of patients who are HIV positive based on the phenotypic drug sensitivity of human HIV strains” (Virco N.V., priority 1996, dated 2003).
# Read-outs that look alike come from different tables or passages of the source.
# Experiments:
# Format in all cases: cell-based, HIV-1
# [1] = test system: Recombinant wild type HIV strain recIIIB; assay: Antiviral MT4/MTT assay with reference virus recIIIB; details: read-out: Anti-HIV-1 activity IC50 (μM) recIIIB ref (2)
# Method: (§1) After titration of the new viruses, the stocks were used for antiviral experiments in the presence of serial dilutions of different HIV inhibitors. Titres of the harvested supematants were determined by limited serial dilution titration of virus in MT4 cells.
# (§2) Viruses with a useful titre were used in antiviral experiments. For this purpose, 96-well microtitre plates were filled with 100μl of complete culture medium. Subsequently, stock solutions of compounds were added in 25 μl volumes to series of duplicate wells. HIV- and mock-infected cell samples were included for each drug (or drug combination). Exponentially growing MT4 cells were then transferred to the microtitre plates at a density of 150,000 cells/ml. The cell cultures were then incubated at 37° C. in a humidified atmosphere of 5% CO2. Five days after infection, the viability of the mock- and HIV-infected cells was examined spectrophotometrically by the M1T method (Pauwels, R. et al. J. Virol. Meth. (1988), 20: 309-321) as described in Section 6 below.
# (§3) To each well of the microtiter plates, 20 μl of a solution of MTT (7.5 mg/ml in PBS) was added. The plates were further incubated at 37° C. for 1 h. Then, 150 μl of medium was removed without disturbing the MT4 cell clusters containing the formazan crystals. Solubilization of the formazan crystals was achieved by adding 100 μl 5% Triton X-100 in acidified isopropanol (5 ml concentrated HCl per liter solvent). Complete dissolution of the formazan crystals was obtained after the plates had been placed on a plate shaker for 10 min. Finally the absorbances were read at two wavelengths (540 and 690 nm). From these optical density (OD) data, 50% inhibitory (IC50) and 50% cytotoxic (CC50) concentrations were derived.
# [2] = test system: recombinant virus from patient viral RNA (Example 10, drug-naive patient); assay: Recombinant virus assay (MT4/MTT), drug-naive patient of Example 10; details: for IC50: Human immunodeficiency virus 1, Table 6, Example 10 patient virus; for ratio (1)/(2): Table 6, patient mean IC50 / recIIIB IC50, Example 10
# Method: (§4) RNA was isolated from 100 μl of plasma according to the method described by Boom, R. et al. (1990, supra), and was reverse transcribed with the GeneAmp reverse transcriptase kit (Perkin Elmer) as described by the manufacturer and using an HIV-1 specific downstream primer (OUT3: 5′-CATTGCTCTCCAATTACTGTGATATTTCTCATC-3′; SEQ ID NO: 1). PCR on reverse transcribed RNA was performed with inner and outer primers as described by Kellam, P. and Larder, B. A. (1994, supra). After chloroform extraction and centrifugation on Centricon 100 columns or centrifugation on anion-exchange spin columns (Quiagen), the isolated PCR product was ready for use in the transfection reactions.
# (§5) MT4 cells were subcultured at a density of 250,000 cells/ml before transfection (exponential growth phase). Cells were pelleted and resuspended in phosphate buffered saline (PBS) at a concentration of […]. A 0.8 ml portion (2.5 10E6 cells/ml) was used for each transfection. Transfection was performed with the Bio-Rad Gene pulser making use of 0.4 cm electrode cuvettes. Cells were electroporated in the presence of […] of linearised pHIVΔRT plasmid and approximately 5 μg of RT PCR product at 250SF and 300 V, followed by a 30-min incubation at room temperature. Subsequently, 10 ml of fresh culture medium was added to the cell suspension and incubation was performed at 37° C. in a humidified atmosphere of 5% CO2.
# (§6) During 7 to 10 days following the transfection, cells were monitored for the appearance of cytopathogenic effect (CPE). In the absence thereof, cells were subcultured in different flasks. Subsequently, culture supernatants of transfected cells were used to create a stock of recombinant virus and stored in 1.5 ml aliquots at −70° C.
# as §1, §2, §3
# (§7) A drug-naive HIV-infected patient donated plasma whose susceptibility to a number of RT inhibitors and protease inhibitors was determined according to the protocol set out in Example 1. Recombinant wild type HIV strain recIIIB was used as a reference HIV virus.
# [3] = test system: recombinant virus from patient viral RNA (Example 11); assay: Recombinant virus assay (MT4/MTT), patient of Example 11 (therapy history RT and protease inhibitors); details: for IC50: Human immunodeficiency virus 1, Table 7, Example 11 patient virus; for ratio (1)/(2): Table 7, patient mean IC50 / recIIIB IC50, Example 11
# Method: as §4, §5, §6, §1, §2, §3
# as §7, with “An HIV infected” for “A drug-naive HIV-infected”, “patient with a therapy history including RT and protease inhibitors” for “patient”, “recIIIb” for “recIIIB”
# [4] = test system: recombinant virus from patient viral RNA (Example 12); assay: Recombinant virus assay (MT4/MTT), patient of Example 12 (therapy history RT and protease inhibitors); details: for susceptibility of the patient's HIV strain (in words): Example 12 patient, conclusion from Table 8; for IC50: Human immunodeficiency virus 1, Table 8, Example 12 patient virus; for ratio (1)/(2): Table 8, patient mean IC50 / recIIIB IC50, Example 12
# Method: as §4, §5, §6, §1, §2, §3
# An HIV infected patient with a therapy history including RT and protease inhibitors donated plasma whose susceptibility to a number of RT inhibitors and protease inhibitors was determined according to the protocol set out in Example 1.
# [5] = test system: recombinant virus from patient viral RNA (Example 5, 3TC resistant HIV strains); assay: Recombinant virus assay (MT4/MTT), patient of Example 5 (AZT, then AZT+3TC therapy); details: for IC50: Human immunodeficiency virus 1, Table 1, Example 5 patient virus; for ratio (1)/(2): Table 1, patient mean IC50 / recIIIB IC50, Example 5
# Method: as §4, §5, §6, §1, §2, §3
# An HIV infected patient who received AZT from December 1989 until an undocumented later date, and switched to a combined chemotherapy of AZT+3TC (1:1) from February 1994 until October 1995 donated plasma whose susceptibility to a number of RT inhibitors was determined according to the above described protocol of Example 1. Recombinant wild type HIV strain recIIIB was used in said protocol as a reference HIV virus.
# [6] = test system: recombinant virus from patient viral RNA (Example 7, drug-naive patient); assay: Recombinant virus assay (MT4/MTT), drug-naive patient of Example 7; details: for IC50: Human immunodeficiency virus 1, Table 3, Example 7 patient virus; for ratio (1)/(2): Table 3, patient mean IC50 / recIIIB IC50, Example 7
# Method: as §4, §5, §6, §1, §2, §3
# A drug-naive HIV-infected patient donated plasma whose susceptibility to a number of RT inhibitors was determined according to the protocol set out in Example 1. Recombinant wild type HIV strain recIIIB was used as a reference HIV virus.
# [7] = test system: recombinant virus from patient viral RNA (Example 8); assay: Recombinant virus assay (MT4/MTT), patient of Example 8 (therapy history AZT, 3TC and loviride); details: for IC50: Human immunodeficiency virus 1, Table 4, Example 8 patient virus; for ratio (1)/(2): Table 4, patient mean IC50 / recIIIB IC50, Example 8
# Method: as §4, §5, §6, §1, §2, §3
# (§8) An HIV-infected patient with a therapy history including AZT, 3TC and loviride donated plasma whose susceptibility to a number of RT inhibitors was determined according to the protocol set out in Example 1. Recombinant wild type HIV strain recIIIB was used as a reference HIV virus.
# [8] = test system: recombinant virus from patient viral RNA (Example 9); assay: Recombinant virus assay (MT4/MTT), patient of Example 9 (multiple nucleoside analogue RT-inhibitors); details: for IC50: Human immunodeficiency virus 1, Table 5, Example 9 patient virus; for ratio (1)/(2): Table 5, patient mean IC50 / recIIIB IC50, Example 9
# Method: as §4, §5, §6, §1, §2, §3
# as §8, with “multiple nucleoside analogue RT-inhibitors” for “AZT, 3TC and loviride”
# [9] = Human immunodeficiency virus 1, Table 6, reference run of Example 10
# [10] = Human immunodeficiency virus 1, Table 7, reference run of Example 11
# [11] = Human immunodeficiency virus 1, Table 8, reference run of Example 12
# [12] = MT4 cells, read-out: Anti-HIV-1 activity IC50 (μM) Exp. 1
# [13] = MT4 cells, read-out: Anti-HIV-1 activity IC50 (μM) Exp. 2
# [14] = mean, read-out: Anti-HIV-1 activity IC50 (μM) Mean (1)
# [15] = Human immunodeficiency virus 1, Table 1, reference run of Example 5
# [16] = Human immunodeficiency virus 1, Table 3, reference run of Example 7
# [17] = Human immunodeficiency virus 1, Table 4, reference run of Example 8
# [18] = Human immunodeficiency virus 1, Table 5, reference run of Example 9
# [19] = mean of Exp. 1 and 2, read-out: Anti-HIV-1 activity IC50 (μM) Mean (1)
Compound,"IC50 [1, 9] [µM]","IC50 [1, 10] [µM]","IC50 [1, 11] [µM]","IC50 [2, 12] [µM]","IC50 [2, 13] [µM]","IC50 [2, 14] [µM]",ratio (1)/(2) [2],"IC50 [3, 12] [µM]","IC50 [3, 13] [µM]","IC50 [3, 14] [µM]",ratio (1)/(2) [3],susceptibility of the patient's HIV strain (in words) [4],"IC50 [4, 12] [µM]","IC50 [4, 13] [µM]","IC50 [4, 14] [µM]",ratio (1)/(2) [4],"IC50 [1, 15] [µM]","IC50 [1, 16] [µM]","IC50 [1, 17] [µM]","IC50 [1, 18] [µM]",also measured
CC(C)(C)NC(=O)[C@@H]1C[C@@H]2CCCC[C@@H]2CN1C[C@@H](O)[C@H](Cc1ccccc1)NC(=O)[C@H](CC(N)=O)NC(=O)c1ccc2ccccc2n1 [saquinavir],0.006,0.012,0.006,0.003,0.003,0.003,0.4,0.014,0.015,0.014,1,decreased susceptibility,0.35,0.352,0.351,56,–,–,–,–,–
CC(C)c1nc(CN(C)C(=O)N[C@H](C(=O)N[C@@H](Cc2ccccc2)C[C@H](O)[C@H](Cc2ccccc2)NC(=O)OCc2cncs2)C(C)C)cs1 [ritonavir],0.033,0.062,0.033,0.022,0.017,0.019,0.6,1.2,1.74,1.47,24,decreased susceptibility,1.61,1.53,1.57,47,–,–,–,–,"susceptibility of the patient's HIV strain (in words) ([3]; Example 11 patient, conclusion from Table 7): decreased susceptibilty"
CC(C)=CCN1Cc2c(Cl)ccc3[nH]c(=S)n(c23)C[C@@H]1C [tivirapine],–,–,–,–,–,–,–,–,–,–,–,–,–,–,–,–,0.01,0.021,0.021,0.042,"IC50 [5, 12]: 0.019 µM; IC50 [5, 13]: 0.018 µM; IC50 [5, 19]: 0.019 µM; ratio (1)/(2) [5]: 1.5; IC50 [6, 12]: 0.042 µM; IC50 [6, 13]: 0.049 µM; IC50 [6, 14]: 0.046 µM; ratio (1)/(2) [6]: 2; IC50 [7, 12]: 1.63 µM; IC50 [7, 13]: 1.6 µM; IC50 [7, 14]: 1.61 µM; ratio (1)/(2) [7]: 78; IC50 [8, 12]: 0.052 µM; IC50 [8, 13]: 0.043 µM; IC50 [8, 14]: 0.048 µM; ratio (1)/(2) [8]: 1"
CC(=O)c1ccc(C)cc1NC(C(N)=O)c1c(Cl)cccc1Cl (stereo not shown) [loviride],–,–,–,–,–,–,–,–,–,–,–,–,–,–,–,–,0.05,0.024,0.037,0.065,"IC50 [5, 12]: 0.1 µM; IC50 [5, 13]: 0.12 µM; IC50 [5, 19]: 0.11 µM; ratio (1)/(2) [5]: 2; IC50 [6, 12]: 0.035 µM; IC50 [6, 13]: 0.025 µM; IC50 [6, 14]: 0.03 µM; ratio (1)/(2) [6]: 1; IC50 [7, 12]: > 100 µM; IC50 [7, 13]: > 100 µM; IC50 [7, 14]: > 100 µM; ratio (1)/(2) [7]: >2717; IC50 [8, 12]: 0.064 µM; IC50 [8, 13]: 0.058 µM; IC50 [8, 14]: 0.061 µM; ratio (1)/(2) [8]: 0.9"
